Among the test systems are DMS 273 small cell lung; DLD-1 colon; M19-MEL melanoma; DMS 114 small cell lung; LXFL 529 NSCLC; HOP-18 NSCLC; MCF7 breast.
What all share (assay): NCI anticancer screen, dose series, 48 h

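Each compound was tested at five concentrations against cells in 96-well plates for 48 hours. At the TGI there is no net growth.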

Here are results for 10 compounds from PubChem BioAssay (NCI).

With `CCOC(=O)/C(C#N)=C\C=C1/C=CNC2=NCCN21`, the TGI in the assay on DMS 273 small cell lung, with DLD-1 colon, in the assay with M19-MEL melanoma, in the assay with DMS 114 small cell lung, with LXFL 529 NSCLC and in the assay with HOP-18 NSCLC was greater than 100 µM each time.

With `O=C(c1cc2c(C(F)(F)F)onc2c2ccccc12)C(F)(F)F`, the TGI was 16.1 µM with DMS 273 small cell lung; greater than 100 µM with DLD-1 colon; 23.4 µM in the assay on M19-MEL melanoma; 10.9 µM in the assay on DMS 114 small cell lung; greater than 47 µM in the assay on LXFL 529 NSCLC; greater than 100 µM in the assay on HOP-18 NSCLC.

With `CCN(CC)CCOC(=O)/C(=C/c1ccc(OC)cc1)c1cc(OC)c(OC)c(OC)c1`, the TGI with DMS 273 small cell lung is 23.4 µM; in the assay on DLD-1 colon, greater than 100 µM; in the assay on M19-MEL melanoma, greater than 100 µM; with DMS 114 small cell lung, 22.2 µM; in the assay with LXFL 529 NSCLC, 23.1 µM; in the assay on HOP-18 NSCLC, greater than 100 µM.

`CC(Oc1ccc(OCC2CCCCC2)cc1)C(=O)O` (stereo unspecified): the TGI in the assay on DMS 273 small cell lung, in the assay with DLD-1 colon, in the assay with M19-MEL melanoma, in the assay with DMS 114 small cell lung, in the assay with LXFL 529 NSCLC and in the assay with HOP-18 NSCLC was greater than 100 µM in each case.

In the case of `CC(=O)O[C@H]1CCC2[C@@H]3CCC4Nc5c(cnn5-c5ccccc5)C[C@]4(C)C3CC[C@@]21C` (stereo partly specified), the TGI in the assay on DMS 273 small cell lung is 14.4 µM; with DLD-1 colon, greater than 100 µM; in the assay with M19-MEL melanoma it was 24.4 µM; in the assay with DMS 114 small cell lung, 58.3 µM; in the assay with LXFL 529 NSCLC, 58.5 µM; with HOP-18 NSCLC it was 86.5 µM.

As for `O=C1NC(=O)C(=O)C(c2nc3ccccc3s2)C1=O`, the TGI in the assay on DMS 273 small cell lung, with DLD-1 colon, with M19-MEL melanoma, in the assay on DMS 114 small cell lung, in the assay with LXFL 529 NSCLC and in the assay on HOP-18 NSCLC was greater than 100 µM throughout.

For the compound `Cc1ccc(NC(=O)CC/C(CC(=O)c2ccc(Cl)cc2)=N\NC(=O)C(=O)NN)cc1C`, the TGI in the assay with DMS 273 small cell lung, with DLD-1 colon, in the assay with M19-MEL melanoma, with DMS 114 small cell lung, in the assay on LXFL 529 NSCLC and in the assay with HOP-18 NSCLC was greater than 100 µM each time.

Regarding `CC([C@H]1CCC2C3CCC4CC5(CC[C@]4(C)C3CC[C@@]21C)c1ccccc1C(=O)N5C)N(C)C` (stereo partly specified), the TGI was 75.4 µM in the assay with DMS 273 small cell lung; greater than 100 µM with DLD-1 colon; 78.3 µM in the assay with M19-MEL melanoma; greater than 100 µM with DMS 114 small cell lung; greater than 100 µM in the assay with LXFL 529 NSCLC; greater than 100 µM in the assay on HOP-18 NSCLC.

Consider `CC1=C(/C=C/C2=CC(=C\C(=O)O)/CC(C3=C(C)CCCC3(C)C)C2)C(C)(C)CCC1` (stereo unspecified), for which the TGI in the assay with DMS 273 small cell lung is 27.7 µM; in the assay with DLD-1 colon, 24.5 µM; in the assay with M19-MEL melanoma, 30.6 µM; with DMS 114 small cell lung, 23 µM; in the assay with LXFL 529 NSCLC, 26.8 µM; in the assay on HOP-18 NSCLC it was 27 µM.

As for `NC1=NC(c2ccccc2)CC(c2cc(Cl)cc(Br)c2O)=N1` (stereo unspecified), the TGI is 23.2 µM with DMS 273 small cell lung; 25.8 µM with DLD-1 colon; 28.2 µM in the assay with M19-MEL melanoma; 27.1 µM in the assay with DMS 114 small cell lung; 31.3 µM in the assay on LXFL 529 NSCLC; 21.4 µM in the assay on MCF7 breast. The compound also returned a TGI with HOP-18 NSCLC of 37.4 µM.
